Data from ChEMBL document CHEMBL1201862, “PubChem BioAssay data set” (2004).
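A five-concentration, 48-hour dose response in 96-well plates underlies each endpoint, interpolated linearly between surrounding concentrations. The concentration for 50% growth inhibition is given as GI50.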 The source made the active and inactive calls. Cut-off read from the data, not from the text of the source: active = GI50 up to about 1.1 µM and inactive = higher.

Legend:
Assay in all cases: NCI anticancer screen, dose series, 48 h
ACHN = test system: ACHN
COLO 205 = test system: COLO 205
DLD-1 = test system: DLD-1
IGROV-1 = test system: IGROV-1
K562 = test system: K562
Malme-3M = test system: Malme-3M
RXF 393 = test system: RXF 393
SK-MEL-28 = test system: SK-MEL-28
SK-MEL-2 = test system: SK-MEL-2
SK-OV-3 = test system: SK-OV-3
SNB-19 = test system: SNB-19
SNB-75 = test system: SNB-75
SW-620 = test system: SW-620
UACC-257 = test system: UACC-257
UACC-62 = test system: UACC-62
NCI-H226 = test system: NCI-H226
OVCAR-5 = test system: OVCAR-5

Measured: GI50

COc1cc(C2C(C(=O)O)=C(COC(C)=O)Oc3cc4c(cc32)OCO4)cc(OC)c1OC(C)=O (configuration not stated)
inactive: ACHN > 100 µM | COLO 205 > 100 µM | DLD-1 > 100 µM | IGROV-1 > 100 µM | K562 > 100 µM | Malme-3M > 100 µM | RXF 393 > 100 µM | SK-MEL-28 > 100 µM | SK-MEL-2 > 100 µM | SK-OV-3 > 100 µM | SNB-19 > 100 µM | SNB-75 > 100 µM | SW-620 > 100 µM | UACC-257 > 100 µM | UACC-62 > 100 µM

CCC12CCCNC1c1c(n(C)c3ccccc13)C(C(=O)OC)C2 (configuration not stated)
inactive: ACHN 79.4 µM | COLO 205 38.8 µM | DLD-1 76.4 µM | IGROV-1 61.4 µM | K562 67.9 µM | Malme-3M 80.2 µM | NCI-H226 126 µM | OVCAR-5 67 µM | RXF 393 36.5 µM | SK-MEL-28 100 µM | SK-MEL-2 62.2 µM | SK-OV-3 46.9 µM | SNB-19 95.5 µM | SW-620 68.1 µM | UACC-257 59.2 µM | UACC-62 56.8 µM

O=C1NC2C=CN(Cc3ccccc3)C=C2C(=O)N2CCCC12 (configuration not stated)
inactive: ACHN > 100 µM | COLO 205 > 100 µM | DLD-1 > 100 µM | IGROV-1 > 100 µM | Malme-3M > 100 µM | NCI-H226 > 100 µM | OVCAR-5 > 100 µM | RXF 393 > 100 µM | SK-MEL-28 > 100 µM | SK-MEL-2 > 100 µM | SK-OV-3 > 100 µM | SNB-19 > 100 µM | SNB-75 > 100 µM | SW-620 > 100 µM | UACC-257 > 100 µM | UACC-62 > 100 µM

N#C/C(=N\c1ccccc1N(C(=O)c1ccccc1)C(=O)c1ccccc1)c1ccccc1
inactive: ACHN > 60.5 µM | COLO 205 > 42 µM | DLD-1 > 42 µM | IGROV-1 6.67 µM | K562 3.49 µM | Malme-3M > 100 µM | NCI-H226 > 69.5 µM | OVCAR-5 > 47.4 µM | SK-MEL-28 > 100 µM | SK-MEL-2 42.1 µM | SK-OV-3 > 100 µM | SNB-19 3.62 µM | SNB-75 > 100 µM | SW-620 6.52 µM | UACC-257 > 100 µM | UACC-62 35.9 µM

C=CCOC1CC(n2cnc3c(N)ncnc32)OC1CO (configuration not stated)
inactive: ACHN > 100 µM | COLO 205 > 100 µM | DLD-1 > 100 µM | IGROV-1 > 100 µM | K562 > 100 µM | Malme-3M > 100 µM | NCI-H226 > 100 µM | OVCAR-5 > 100 µM | SK-MEL-28 > 100 µM | SK-MEL-2 > 100 µM | SNB-19 > 100 µM | SNB-75 51.1 µM | SW-620 > 100 µM | UACC-257 > 100 µM | UACC-62 > 100 µM

COc1cc(C)c(C(=O)/C=C/c2cc(OC)c(O)c(OC)c2)cc1O
inactive: ACHN 32.8 µM | COLO 205 32.7 µM | DLD-1 15.3 µM | IGROV-1 28.9 µM | K562 19.4 µM | Malme-3M 20.1 µM | OVCAR-5 27.6 µM | SK-MEL-28 18.6 µM | SK-MEL-2 18.9 µM | SK-OV-3 32.1 µM | SNB-19 18 µM | SNB-75 20.7 µM | SW-620 26.4 µM | UACC-257 31.1 µM | UACC-62 17.7 µM

O=C(/C=C\c1cccc2ccccc12)c1cccs1
inactive: ACHN 11.5 µM | COLO 205 15.7 µM | DLD-1 3.77 µM | IGROV-1 10.3 µM | K562 2.56 µM | Malme-3M 12.5 µM | OVCAR-5 18.7 µM | SK-MEL-28 14.3 µM | SK-OV-3 15.5 µM | SNB-19 12.6 µM | SNB-75 23.6 µM | SW-620 1.62 µM | UACC-257 13.2 µM | UACC-62 9.95 µM

Cc1cc(Cl)ccc1NC(=O)C1C(=O)C(=O)N(c2ccc(Cl)cc2C)C1=O (configuration not stated)
inactive: ACHN > 100 µM | COLO 205 > 100 µM | DLD-1 > 100 µM | IGROV-1 > 100 µM | K562 40.6 µM | Malme-3M > 100 µM | NCI-H226 49.8 µM | OVCAR-5 48.3 µM | SK-MEL-28 > 100 µM | SK-MEL-2 89.9 µM | SK-OV-3 > 100 µM | SNB-19 21 µM | SNB-75 > 100 µM | SW-620 > 100 µM | UACC-257 > 100 µM | UACC-62 63.2 µM

O=C(O)c1c2c(cc3c(=O)cc(-c4ccccc4)oc13)CCCC2
inactive: ACHN > 100 µM | COLO 205 > 100 µM | DLD-1 > 100 µM | IGROV-1 > 100 µM | K562 > 100 µM | Malme-3M > 100 µM | OVCAR-5 > 100 µM | SK-MEL-28 > 100 µM | SK-MEL-2 > 100 µM | SK-OV-3 > 100 µM | SNB-19 > 100 µM | SNB-75 6.59 µM | SW-620 > 100 µM | UACC-257 > 100 µM | UACC-62 > 100 µM

COc1cc2cc3c4c(cc(OC)c(OC)c4c2cc1OC)CCN3C(=O)CCC(=O)O
inactive: ACHN > 100 µM | COLO 205 > 100 µM | DLD-1 > 100 µM | IGROV-1 > 100 µM | K562 > 100 µM | Malme-3M > 100 µM | NCI-H226 > 100 µM | OVCAR-5 > 100 µM | RXF 393 > 100 µM | SK-MEL-28 > 100 µM | SK-MEL-2 > 100 µM | SK-OV-3 > 100 µM | SNB-19 > 100 µM | SW-620 > 100 µM | UACC-257 > 100 µM | UACC-62 > 100 µM

CC(=O)O/N=C/c1cc2c(cc1Br)OCO2
inactive: ACHN > 349 µM | COLO 205 > 349 µM | DLD-1 > 349 µM | IGROV-1 > 349 µM | K562 > 349 µM | Malme-3M > 349 µM | OVCAR-5 > 349 µM | RXF 393 > 349 µM | SK-MEL-28 > 349 µM | SK-MEL-2 > 349 µM | SK-OV-3 > 349 µM | SW-620 > 349 µM | UACC-257 > 349 µM | UACC-62 > 349 µM

CC(=O)O[C@H]1CC[C@@]2(C)C(=CC[C@@H]3C2CC[C@]2(C)Nc4c(cnn4-c4ccccc4)CC32)C1 (some centres not stated)
inactive: ACHN 13.8 µM | DLD-1 21.4 µM | IGROV-1 20.6 µM | Malme-3M 29.9 µM | NCI-H226 > 100 µM | OVCAR-5 19.2 µM | RXF 393 3.53 µM | SK-MEL-28 10.4 µM | SK-MEL-2 54.6 µM | SK-OV-3 27.8 µM | SNB-75 4.07 µM | SW-620 19.4 µM | UACC-257 12.4 µM | UACC-62 18.7 µM

N#CC(C#N)=Cc1ccc(C(O)P(=O)(O)O)cc1 (configuration not stated)
inactive: ACHN > 100 µM | COLO 205 > 100 µM | DLD-1 > 100 µM | IGROV-1 > 100 µM | K562 69.2 µM | Malme-3M > 100 µM | NCI-H226 > 100 µM | OVCAR-5 > 100 µM | SK-MEL-28 > 100 µM | SK-MEL-2 > 100 µM | SK-OV-3 > 100 µM | SNB-19 > 100 µM | SW-620 > 100 µM | UACC-257 > 100 µM | UACC-62 > 100 µM
